Among the data in PubChem BioAssay (NCI) are TGI and GI50 values, retold here.

In the assay the test system is P388 leukemia. Briefly: NCI tumour cell line growth inhibition, 48 h.

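Grown in 96-well plates, cells were treated for 48 hours with each compound at five concentrations. Insufficient inhibition: endpoint recorded as highest concentration tested. GI50 marks 50% less growth. The concentration for full growth arrest is given as TGI.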

Turning to `C=C1C(=O)OCC2C(C(=O)O)=CC3C(C)C(C)=CC123` (stereo not drawn), the TGI came to 12.7 µM.

As to `O=[Se](=O)c1ccccc1.O=[Se](=O)c1ccccc1.[Cu]`, the GI50 is 5.23 µM and the TGI amounted to 29 µM.
